pIC50: −log10 of the molar value.
biological target: Factor D (Homo sapiens (Human), UniProt P00746); experiment: Factor D esterolytic assay (Z-Lys-SBzl substrate, DTNB, 405 nm); format: biochemical; settings: Z-Lys-SBzl 1.29 mM, pH 7.5, 10% DMSO, tested a minimum of three times, read-out: Measured Ki (IC50) Value for Compounds: IC50
Outline: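 Thioester hydrolysis (Z-Lys-SBzl, 1.29 mM) by human Factor D ([…]) detected through DTNB color at 405 nm over 600 sec, minus 690 nm background. Buffer: 100 mM HEPES pH 7.5, 500 mM NaCl, 10% DMSO; optional room-temperature preincubation before substrate. IC50 derived from percent rate inhibition; at least three runs.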

Chain of Factor D (P00746 26-253): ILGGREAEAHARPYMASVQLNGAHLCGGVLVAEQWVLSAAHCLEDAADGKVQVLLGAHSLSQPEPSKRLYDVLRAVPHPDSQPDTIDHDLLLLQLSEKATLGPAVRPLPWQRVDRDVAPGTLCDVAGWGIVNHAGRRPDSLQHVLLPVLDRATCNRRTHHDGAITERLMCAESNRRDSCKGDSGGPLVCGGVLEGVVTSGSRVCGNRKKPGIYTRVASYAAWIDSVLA

pIC50, > 6.00:
CC(=O)Nc1ccc(OCc2cc(-c3cccc(CN)c3)c3occc3c2)c(CC(=O)O)c1 [Compound 360c, 2-(5-acetamido-2-((7-(3-(aminomethyl)phenyl)benzofuran-5-yl)methoxy)phenyl)acetic acid]
NCc1cccc(-c2cc(COc3cc(CO)ccc3CC(=O)O)cc3ccoc23)c1 [Compound 361c, 2-(2-((7-(3-(aminomethyl)phenyl)benzofuran-5-yl)methoxy)-4-(hydroxymethyl)phenyl)acetic acid]
NCc1cccc(-c2cc(COc3ccccc3CC(=O)O)cc3c2ccn3Cc2ccccc2)c1 [Compound 362e, 2-(2-((4-(3-(aminomethyl)phenyl)-1-benzyl-1H-indol-6-yl)methoxy)phenyl)acetic acid]
NCc1cccc(-c2cc(COc3cc(F)ccc3CC(=O)O)cc3ccoc23)c1F [Compound 363b, 2-(2-((7-(3-(aminomethyl)-2-fluorophenyl)benzofuran-5-yl)methoxy)-4-fluorophenyl)acetic acid]
NCc1nccc(-c2cc(COc3cc(F)ccc3CC(=O)O)cc3ccoc23)c1F [Compound 364d, 2-(2-((7-(2-(aminomethyl)-3-fluoropyridin-4-yl)benzofuran-5-yl)methoxy)-4-fluorophenyl)acetic acid]
NCc1cc(-c2cc(COc3cc(F)ccc3CC(=O)O)cc3ccoc23)ccn1 [Compound 365f, 2-(2-((7-(2-(aminomethyl)pyridin-4-yl)benzofuran-5-yl)methoxy)-4-fluorophenyl)acetic acid]
Cc1ccc(CC(=O)O)c(OCc2cc(-c3ccnc(CN)c3F)c3ccn(C)c3c2)c1 [Compound 366d, 2-(2-((4-(2-(aminomethyl)-3-fluoropyridin-4-yl)-1-methyl-1H-indol-6-yl)methoxy)-4-methylphenyl)acetic acid]
Cc1ccc(CC(=O)O)c(OCc2cc(-c3ccnc(CN)c3)c3ccn(C)c3c2)c1 [Compound 367c, 2-(2-((4-(2-(aminomethyl)pyridin-4-yl)-1-methyl-1H-indol-6-yl)methoxy)-4-methylphenyl)acetic acid]
NCc1cccc(-c2cc(CC(=O)N3C[C@H](F)C[C@H]3C(=O)NCc3cccc(Cl)c3F)cc3ccoc23)c1 [Compound 368c, (2S,4R)-1-(2-(7-(3-(aminomethyl)phenyl)benzofuran-5-yl)acetyl)-N-(3-chloro-2-fluorobenzyl)-4-fluoropyrrolidine-2-carboxamide]
NCc1cccc(-c2cc(CCN3CCC[C@H]3C(=O)NCc3cccc(Cl)c3F)cc3ccoc23)c1 [Compound 369d, (S)-1-(2-(7-(3-(aminomethyl)phenyl)benzofuran-5-yl)ethyl)-N-(3-chloro-2-fluorobenzyl)pyrrolidine-2-carboxamide]
NCc1cccc(-c2cc(COc3c(CC(=O)O)cccc3-c3ccccc3)cc3ccoc23)c1 [Compound 370f, 2-(2-((7-(3-(aminomethyl)phenyl)benzofuran-5-yl)methoxy)-[1,1′-biphenyl]-3-yl)acetic acid]
CCc1ccc(CC(=O)O)c(OCc2cc(-c3ccnc(CN)c3)c3occc3c2)c1 [Compound 371c, 2-(2-((7-(2-(aminomethyl)pyridin-4-yl)benzofuran-5-yl)methoxy)-4-ethylphenyl)acetic acid]
Cn1ccc(NCc2cc3cc(COc4ccccc4CC(=O)O)cc(-c4cccc(CN)c4)c3o2)n1 [Compound 372c, 2-(2-((7-(3-(aminomethyl)phenyl)-2-(((1-methyl-1H-pyrazol-3-yl)amino)methyl)benzofuran-5-yl)methoxy)phenyl)acetic acid]
NCc1cccc(-c2cc(COc3ccccc3CC(=O)O)cc3cc(F)oc23)c1F [Compound 373b, 2-(2-((7-(3-(aminomethyl)-2-fluorophenyl)-2-fluorobenzofuran-5-yl)methoxy)phenyl)acetic acid]

— US11370774B2, “Substituted benzofuran, benzopyrrole, benzothiophene, and structurally related complement inhibitors” (BioCryst Pharmaceuticals, Inc., priority 2018, dated 2022)
